From patent US10189854B2, “Substituted pyrimidine compounds” (Grünenthal GmbH, priority 2014, dated 2019)

These molecules were tested against human PDE4B1 (Homo sapiens (Human), UniProt Q07343) (assay: TR-FRET assay using the LANCE Ultra cAMP kit to determine the activity of hPDE4B1). Conditions: IC50 inhibition of PDE4B, mean.
Assay type: biochemical
Outline: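 Recombinant human PDE4B1 (Sf9-expressed, 0.96 U) incubated with compound and 500 nM cAMP in 50 mM Tris-HCl, 50 mM MgCl2, 5 mM DTT, pH 8.5, 30 min at room temperature. Residual cAMP read by TR-FRET (665/620 nm ratio) after IBMX stop. IC50 from ten-concentration curves as % inhibition of control.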

human PDE4B1, sequence (Q07343 whole entry): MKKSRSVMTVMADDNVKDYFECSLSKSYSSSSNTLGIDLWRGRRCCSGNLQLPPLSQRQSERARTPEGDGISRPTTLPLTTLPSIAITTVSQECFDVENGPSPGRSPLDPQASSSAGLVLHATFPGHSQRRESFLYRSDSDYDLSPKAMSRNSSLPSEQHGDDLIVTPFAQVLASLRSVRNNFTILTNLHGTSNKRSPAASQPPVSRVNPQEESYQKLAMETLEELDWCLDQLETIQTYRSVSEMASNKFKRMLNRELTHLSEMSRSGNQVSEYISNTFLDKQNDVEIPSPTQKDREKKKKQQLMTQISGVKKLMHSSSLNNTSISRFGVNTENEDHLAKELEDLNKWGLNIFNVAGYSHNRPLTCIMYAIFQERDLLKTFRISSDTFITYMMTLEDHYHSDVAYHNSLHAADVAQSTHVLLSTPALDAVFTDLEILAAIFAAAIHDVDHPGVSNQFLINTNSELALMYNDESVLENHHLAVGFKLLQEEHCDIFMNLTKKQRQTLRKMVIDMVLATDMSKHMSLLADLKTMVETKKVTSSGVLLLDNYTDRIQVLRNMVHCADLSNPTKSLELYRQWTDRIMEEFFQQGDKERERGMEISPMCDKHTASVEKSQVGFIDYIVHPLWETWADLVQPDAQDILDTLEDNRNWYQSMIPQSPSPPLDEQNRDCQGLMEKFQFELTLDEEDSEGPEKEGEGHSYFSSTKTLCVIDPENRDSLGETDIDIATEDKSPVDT

| IC50 | SMILES |
| --- | --- |
| < 0.1 µM | COc1cnnc(-c2cnc(N3CC4(CC4)c4ccc(C(=O)N(C)CCO)cc43)nc2)c1 [Compound 340, N-(2-Hydroxy-ethyl)-1-[5-(5-methoxy-pyridazin-3-yl)-pyrimidin-2-yl]-N-methyl-spiro[1,2-dihydro-indole-3,1′-cyclopropane]-6-carboxylic acid amide] |
| 0.1 to 1 µM | O=C(c1ccc2c(c1)N(c1ncc(-c3ccccc3)cn1)CC21CC1)N1C[C@H]2C[C@@H]1CN2 [Compound 248, [(1R,4R)-2,5-Diazabicyclo[2.2.1]heptan-2-yl]-[1-(5-phenyl-pyrimidin-2-yl)-spiro[1,2-dihydro-indole-3,1′-cyclopropane]-6-yl]-methanone] |
| < 0.1 µM | CN(CCO)C(=O)c1ccc2c(c1)N(c1ncc(-c3cccc(O)c3)cn1)CC21CC1 [Compound 264, N-(2-Hydroxy-ethyl)-1-[5-(3-hydroxyphenyl)-pyrimidin-2-yl]-N-methyl-spiro[1,2-dihydro-indole-3,1′-cyclopropane]-6-carboxylic acid amide] |
| < 0.1 µM | CN(CCO)C(=O)c1ccc2c(c1)N(c1ncc(-c3csc(C(N)=O)n3)cn1)CC21CC1 [Compound 327, 4-[2-[6-[(2-Hydroxy-ethyl)-methyl-carbamoyl]-spiro[1,2-dihydro-indole-3,1′-cyclopropane]-1-yl]-pyrimidin-5-yl]-thiazole-2-carboxylic acid amide] |
| < 0.1 µM | O=C(c1ccc2c(c1)N(c1ncc(-c3cccc(F)c3)cn1)CC21CC1)N1CC2CC1CN2 (centres unmarked) [Compound 223, (2,5-Diazabicyclo[2.2.1]heptan-2-l)-[1-[5-(3-fluorophenyl)-pyrimidin-2-yl]-spiro[1,2-dihydro-indole-3,1′-cyclopropane]-6-yl]-methanone] |

Further lines, the molecule ahead of its results:

| SMILES | IC50 |
| --- | --- |
| CN(CCO)C(=O)c1ccc2c(c1)N(c1ncc(-c3nc(CC#N)cs3)cn1)CC21CC1 [Compound 350, 1-[5-[4-(Cyano-methyl)-thiazol-2-yl]-pyrimidin-2-yl]-N-(2-hydroxy-ethyl)-N-methyl-spiro[1,2-dihydro-indole-3,1′-cyclopropane]-6-carboxylic acid amide] | < 0.1 µM |
| CN(CCO)C(=O)c1ccc2c(c1)N(c1ncc(-c3cccnn3)cn1)CC21CC1 [Compound 262, N-(2-Hydorxy-ethyl)-N-methyl-1-(5-pyridazin-3-yl-pyrimidin-2-yl)-spiro[1,2-dihydro-indole-3,1′-cyclopropane]-6-carboxylic acid amide] | < 0.1 µM |
| N[C@@H]1CCN(C(=O)c2ccc3c(c2)N(c2ncc(-c4ccccn4)cn2)CC32CC2)C1 [Compound 329, [(3R)-3-Amino-pyrrolidin-1-yl]-[1-(5-pyridin-2-yl-pyrimidin-2-yl)-spiro[1,2-dihydro-indole-3,1′-cyclopropane]-6-yl]-methanone] | < 0.1 µM |
| CN(CCO)C(=O)c1ccc2c(c1)N(c1ncc(-c3ccccn3)cn1)CC21CC1 [Compound 229, N-(2-Hydroxy-ethyl)-N-methyl-1-(5-pyridin-2-yl-pyrimidin-2-yl)-spiro[1,2-dihydro-indole-3,1′-cyclopropane]-6-carboxylic acid amide] | < 0.1 µM |
| CN(CCO)C(=O)c1ccc2c(c1)N(c1ncc(-c3cc(N4CCCC4)ccc3F)cn1)CC21CC1 [Compound 359, 1-[5-(2-Fluoro-5-pyrrolidin-1-yl-phenyl)-pyrimidin-2-yl]-N-(2-hydroxy-ethyl)-N-methyl-spiro[1,2-dihydro-indole-3,1′-cyclopropane]-6-carboxylic acid amide] | < 0.1 µM |
| CN(CCO)C(=O)c1ccc2c(c1)N(c1ncc(-c3cc(F)ccc3F)cn1)CC21CC1 [Compound 364, 1-[5-(2,5-Difluoro-phenyl)-pyrimidin-2-yl]-N-(2-hydroxy-ethyl)-N-methyl-spiro[1,2-dihydro-indole-3,1′-cyclopropane]-6-carboxylic acid amide] | < 0.1 µM |
